Results as given in US6828320B2, “Heterocyclic compounds” (SmithKline Beecham Corporation, priority 1996, dated 2004).
Where a name gives a salt, the structure may show the parent alone. Read-outs that look alike come from different tables or passages of the source.

Assays:
[1] = system: Calu3-lung tumour cell line; assay: Cell proliferation assay, Calu3; format: cell-based, human; conditions: same methodology, 4 days
Experimental: (§1) The cell proliferation assay uses an immortalised human breast epithelial cell line (HB4a) which has been transformed by over-expression of c-erbB-2. Growth of these cells in low serum is dependent upon the c-erbB-2 tyrosine kinase activity. The specificity of the effect of the test compounds on tyrosine kinase dependent growth over general toxicity is assessed by comparison to an HB4a cell line which has been transfected with ras. Cells are plated at 3000/ well in 96-well plates in 0.1 ml medium and allowed to attach overnight. test compound is added in 0.1 ml medium, with a final concentration of 0.5% DMSO, and the plates incubated for 4 days at 37° C. The cells are then examined microscopically for evidence of morphological detransformation and cell mass is estimated by staining with methylene blue and measuring the absorbance at 620 nm. The results are shown in Table 1 below as the IC50 values in nM. Activity against a range of naturally occurring EGFr or c-erbB-2 over-expressing human tumour cell lines (BT474-breast, HN5-head and neck, N87-gastric and Calu3-lung) is assessed with selected compounds by the same methodology. The results are also shown in Table 1 below as the IC50 values in nM.

[2] = target: HB4a cell line transformed by over-expression of c-erbB-2 (Homo sapiens, UniProt P04626); assay: Cell proliferation assay, HB4a erbB-2; format: cell-based; conditions: 4 days at 37° C., methylene blue staining; read-out: Cell Proliferation HB4a erbB-2
Experimental: as §1, with “The specificity of the effect of the test compounds on tyrosine kinase dependent growth over general toxicity is assessed by comparison to an HB4a cell line which has been transfected with ras.” left out, “The results are shown in Table 1 below as the IC50 values in nM.” left out, “methodology.” for “methodology. The results are also shown in Table 1 below as the IC50 values in nM.”

[3] = system: HN5-head and neck tumour cell line; assay: Cell proliferation assay, HN5; format: cell-based, human; conditions: same methodology, 4 days
Experimental: as §1

[4] = system: HB4a cell line transfected with ras; assay: Cell proliferation assay, HB4a ras; format: cell-based, human; conditions: 4 days at 37° C., methylene blue staining, general toxicity control, read-out: Cell Proliferation HB4a ras
[5] = target: T1, c-erbB-2 (baculovirus expressed, recombinant intracellular domain) (Homo sapiens, UniProt P04626); assay: Substrate phosphorylation assay, c-erbB-2; format: biochemical; conditions: read-out: Substrate Phosphorylation erbB-2
T1 construct: baculovirus expressed, recombinant constructs of the intracellular domains of c-erbB-2 and c-erbB-4; made in house
Experimental: (§2) The substrate phosphorylation assays use baculovirus expressed, recombinant constructs of the intracellular domains of c-erbB-2 and c-erbB-4 that are constitutively active and EGFr isolated from solubilised A431 cell membranes. The method measures the ability of the isolated enzymes to catalyse the transfer of the γ-phosphate from ATP onto tyrosine residues in a biotinylated synthetic peptide (Biotin-[…]. […] The reaction is stopped by the addition of EDTA (final concentration 0.15 mM) and a sample is transferred to a streptavidin-coated 96-well plate. The plate is washed and level of phosphotyrosine on the peptide is determined using a Europium-labelled antiphosphotyrosine antibody and quantified with a time-resolved fluorescence technique.

[6] = target: T2, c-erbB-4 (baculovirus expressed, recombinant intracellular domain) (Homo sapiens, UniProt Q15303); assay: Substrate phosphorylation assay, c-erbB-4; format: biochemical
T2 construct: baculovirus expressed, recombinant constructs of the intracellular domains of c-erbB-2 and c-erbB-4; made in house
Experimental: as §2

[7] = system: BT474-breast tumour cell line; assay: Cell proliferation assay, BT474; format: cell-based, human; conditions: same methodology, 4 days
Experimental: as §1

[8] = target: T3, EGFr isolated from solubilised A431 cell membranes (Homo sapiens, UniProt P00533); assay: Substrate phosphorylation assay, EGFr; format: biochemical
T3 construct: EGFr isolated from solubilised A431 cell membranes; endogenous in cells; host or cells: A431 cell membranes (solubilised)
Experimental: as §2

[9] = system: N87-gastric tumour cell line; assay: Cell proliferation assay, N87; format: cell-based, human; conditions: same methodology, 4 days
Experimental: as §1

[10] = 30 minutes, room temperature, ATP and peptide at Km concentrations

T3 sequence (P00533 25-1210): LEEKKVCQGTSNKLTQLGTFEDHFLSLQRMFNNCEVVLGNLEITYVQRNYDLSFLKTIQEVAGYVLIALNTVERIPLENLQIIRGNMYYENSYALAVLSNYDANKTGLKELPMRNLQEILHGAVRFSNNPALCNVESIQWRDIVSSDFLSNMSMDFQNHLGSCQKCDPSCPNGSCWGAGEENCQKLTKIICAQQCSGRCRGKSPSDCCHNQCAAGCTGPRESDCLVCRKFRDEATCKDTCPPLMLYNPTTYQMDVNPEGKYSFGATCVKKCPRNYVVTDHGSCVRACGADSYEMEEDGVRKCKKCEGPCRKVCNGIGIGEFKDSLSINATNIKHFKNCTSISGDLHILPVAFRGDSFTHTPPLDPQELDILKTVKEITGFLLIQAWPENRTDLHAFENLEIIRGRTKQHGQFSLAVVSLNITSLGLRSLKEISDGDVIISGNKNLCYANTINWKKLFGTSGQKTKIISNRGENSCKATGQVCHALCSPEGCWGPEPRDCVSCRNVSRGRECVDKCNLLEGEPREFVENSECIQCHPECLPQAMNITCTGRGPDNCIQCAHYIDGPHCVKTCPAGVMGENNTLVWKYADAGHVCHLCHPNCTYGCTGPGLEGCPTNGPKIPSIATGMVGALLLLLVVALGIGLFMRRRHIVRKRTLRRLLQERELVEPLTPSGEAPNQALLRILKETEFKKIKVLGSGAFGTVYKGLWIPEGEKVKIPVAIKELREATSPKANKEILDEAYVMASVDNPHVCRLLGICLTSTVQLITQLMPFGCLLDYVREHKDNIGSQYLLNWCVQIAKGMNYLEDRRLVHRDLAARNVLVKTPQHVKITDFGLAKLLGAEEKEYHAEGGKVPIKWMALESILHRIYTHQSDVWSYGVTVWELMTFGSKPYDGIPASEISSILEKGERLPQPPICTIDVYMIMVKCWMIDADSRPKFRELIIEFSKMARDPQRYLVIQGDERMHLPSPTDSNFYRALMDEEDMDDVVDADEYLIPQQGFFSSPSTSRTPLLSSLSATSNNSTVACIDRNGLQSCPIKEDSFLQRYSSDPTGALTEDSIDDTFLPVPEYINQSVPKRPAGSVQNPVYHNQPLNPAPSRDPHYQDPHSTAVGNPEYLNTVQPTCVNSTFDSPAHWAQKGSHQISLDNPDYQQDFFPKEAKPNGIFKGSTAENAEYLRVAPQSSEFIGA
T1 sequence (P04626 676-1255 limits assumed): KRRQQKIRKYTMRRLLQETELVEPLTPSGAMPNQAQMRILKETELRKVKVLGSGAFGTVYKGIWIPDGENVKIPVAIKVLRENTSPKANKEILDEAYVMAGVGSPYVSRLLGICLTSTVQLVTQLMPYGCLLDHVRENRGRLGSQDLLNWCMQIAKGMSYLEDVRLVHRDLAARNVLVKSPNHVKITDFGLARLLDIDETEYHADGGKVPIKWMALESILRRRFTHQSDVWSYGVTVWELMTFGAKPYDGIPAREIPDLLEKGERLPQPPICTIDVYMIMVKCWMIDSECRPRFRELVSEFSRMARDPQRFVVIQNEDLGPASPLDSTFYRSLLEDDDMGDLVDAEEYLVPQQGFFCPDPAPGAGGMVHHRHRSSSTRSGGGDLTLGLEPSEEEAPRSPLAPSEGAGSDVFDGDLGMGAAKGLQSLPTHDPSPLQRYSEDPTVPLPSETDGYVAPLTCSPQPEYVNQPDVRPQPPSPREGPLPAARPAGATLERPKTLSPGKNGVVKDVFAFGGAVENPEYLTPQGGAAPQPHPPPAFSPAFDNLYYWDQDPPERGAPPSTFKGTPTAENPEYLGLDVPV
HB4a cell line transformed by over-expression of c-erbB-2, sequence (P04626 whole entry, change not shown): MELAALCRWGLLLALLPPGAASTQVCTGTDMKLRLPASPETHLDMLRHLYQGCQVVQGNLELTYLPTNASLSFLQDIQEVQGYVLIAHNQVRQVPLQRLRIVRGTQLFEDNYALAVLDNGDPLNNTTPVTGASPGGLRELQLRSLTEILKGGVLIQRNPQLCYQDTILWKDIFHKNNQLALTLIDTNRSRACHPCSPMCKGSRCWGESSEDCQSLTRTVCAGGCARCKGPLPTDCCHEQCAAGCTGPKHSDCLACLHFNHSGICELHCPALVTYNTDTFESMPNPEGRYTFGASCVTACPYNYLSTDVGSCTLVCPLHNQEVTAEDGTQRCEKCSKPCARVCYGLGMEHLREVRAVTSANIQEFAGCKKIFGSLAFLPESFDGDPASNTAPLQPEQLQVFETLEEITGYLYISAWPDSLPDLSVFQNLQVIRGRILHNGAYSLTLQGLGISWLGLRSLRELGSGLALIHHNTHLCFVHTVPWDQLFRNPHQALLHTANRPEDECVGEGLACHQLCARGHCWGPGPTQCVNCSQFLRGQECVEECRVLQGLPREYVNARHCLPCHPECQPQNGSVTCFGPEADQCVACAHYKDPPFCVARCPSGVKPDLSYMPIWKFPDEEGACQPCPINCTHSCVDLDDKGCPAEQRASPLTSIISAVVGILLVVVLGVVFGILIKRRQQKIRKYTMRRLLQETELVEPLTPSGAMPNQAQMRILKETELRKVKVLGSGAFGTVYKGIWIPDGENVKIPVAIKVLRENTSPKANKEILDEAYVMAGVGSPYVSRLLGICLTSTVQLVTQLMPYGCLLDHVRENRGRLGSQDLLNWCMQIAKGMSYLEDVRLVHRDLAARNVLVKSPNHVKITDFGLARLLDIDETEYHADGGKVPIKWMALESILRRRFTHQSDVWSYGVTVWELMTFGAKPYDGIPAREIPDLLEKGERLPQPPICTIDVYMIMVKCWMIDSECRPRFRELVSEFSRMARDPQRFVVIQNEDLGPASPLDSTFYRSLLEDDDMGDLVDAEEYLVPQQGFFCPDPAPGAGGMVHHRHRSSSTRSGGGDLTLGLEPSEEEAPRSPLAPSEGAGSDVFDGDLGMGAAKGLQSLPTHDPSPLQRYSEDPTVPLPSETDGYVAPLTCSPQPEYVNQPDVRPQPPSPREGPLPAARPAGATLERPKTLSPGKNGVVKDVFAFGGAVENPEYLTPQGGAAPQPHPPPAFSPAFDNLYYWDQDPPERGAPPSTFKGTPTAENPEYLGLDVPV
T2 sequence (Q15303 676-1308 limits assumed): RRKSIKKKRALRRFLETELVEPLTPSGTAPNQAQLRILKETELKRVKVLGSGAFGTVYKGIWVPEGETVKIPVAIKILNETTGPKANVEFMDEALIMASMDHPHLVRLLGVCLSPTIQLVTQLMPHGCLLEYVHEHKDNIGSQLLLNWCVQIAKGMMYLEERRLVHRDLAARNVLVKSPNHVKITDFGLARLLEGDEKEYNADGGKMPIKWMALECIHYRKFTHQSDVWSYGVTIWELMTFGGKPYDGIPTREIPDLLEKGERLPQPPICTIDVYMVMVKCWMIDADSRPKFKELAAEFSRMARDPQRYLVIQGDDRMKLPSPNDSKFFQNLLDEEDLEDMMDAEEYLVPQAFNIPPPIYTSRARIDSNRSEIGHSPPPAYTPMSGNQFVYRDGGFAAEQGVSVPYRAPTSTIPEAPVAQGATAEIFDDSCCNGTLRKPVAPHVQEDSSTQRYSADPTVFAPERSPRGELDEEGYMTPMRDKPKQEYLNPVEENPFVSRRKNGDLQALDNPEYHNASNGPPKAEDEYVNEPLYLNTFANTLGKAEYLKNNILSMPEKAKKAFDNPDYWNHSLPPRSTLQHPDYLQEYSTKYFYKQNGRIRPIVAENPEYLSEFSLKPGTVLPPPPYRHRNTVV

| SMILES | IC50 ([1]; Homo sapiens, Calu-3, 96 h) | GI50 [2] | IC50 ([3]; Homo sapiens, 96 h) | IC50 [5] | IC50 [6] | IC50 [8, 10] | IC50 ([4]; Homo sapiens, HB4a, 96 h) | other results |
| --- | --- | --- | --- | --- | --- | --- | --- | --- |
| NC(=O)[C@@H]1CCCN1Cc1ccc(-c2ccc3ncnc(Nc4ccc5c(cnn5Cc5ccccc5)c4)c3c2)o1 [Example 18, (S)-1-(5-(4-(1-Benzyl-1H-indazol-5-ylamino)-quinazolin-6-yl)-furan-2-ylmethyl)-pyrrolidine-2-carboxylic acid amide dihydrochloride] | 360 nM | 9 nM | 840 nM | 45 nM | 34 nM |  | > 50000 nM | IC50 ([7]; Homo sapiens, BT-474, 96 h): 2 nM; IC50 ([9]; Homo sapiens, 96 h): 180 nM |
| Cc1nnc(-c2ccc3ncnc(Nc4ccc5c(cnn5Cc5cccc(F)c5)c4)c3c2)o1 [Example 22, (1-(3-Fluorobenzyl)-1H-indazol-5-yl)-(6-(5-methyl-1,3,4-oxadiazol-2-yl)-quinazolin-4-yl)-amine hydrochloride] | 2200 nM | 430 nM | 910 nM |  |  | 8 nM | 27000 nM | IC50 ([7]; Homo sapiens, BT-474, 96 h): 97 nM; IC50 ([9]; Homo sapiens, 96 h): 600 nM |
| Cc1nnc(-c2ccc3ncnc(Nc4ccc5c(cnn5Cc5cccc(F)c5F)c4)c3c2)o1 [Example 24, (1-(2,3-Difluorobenzyl)-1H-indazol-5-yl)-(6-(5-methyl-1,3,4-oxadiazol-2-yl)quinazolin-4-yl)-amine hydrochloride] |  | 17000 nM |  | 2 nM |  | 15 nM | > 50000 nM |  |
| Cc1nnc(-c2ccc3ncnc(Nc4ccc(OCc5ccccc5F)c(Cl)c4)c3c2)o1 [Example 25, (3-Chloro-4-(2-fluoro-benzyloxy)-phenyl)-(6-(5-methyl-1,3,4-oxadiazol-2-yl)-s-quinazolin-4-yl)-amine hydrochloride] |  | 750 nM |  | 15 nM |  | 22 nM | > 50000 nM |  |
| Cc1nnc(-c2ccc3ncnc(Nc4ccc(OCc5cccc(F)c5)c(Cl)c4)c3c2)o1 [Example 26, (3-Chloro-4-(3-fluoro-benzyloxy)-phenyl)-(6-(5-methyl-1,3,4-oxadiazol-2-yl)-quinazolin-4-yl)-amine hydrochloride] |  | 650 nM |  | 7 nM |  | 18 nM | > 50000 nM |  |
| Cc1nnc(-c2ccc3ncnc(Nc4ccc(OCc5cccc(F)c5)cc4)c3c2)o1 [Example 29, hydrochloride] |  | 2500 nM |  |  |  | 23 nM |  | IC50 [1]: 23000 nM; IC50 [3]: 4400 nM; IC50 [4]: > 50000 nM; IC50 [5, 10]: 3 nM; IC50 [7]: 770 nM; IC50 [9]: 2400 nM |
| Cc1nnc(-c2ccc3ncnc(Nc4ccc(S(=O)(=O)c5ccccc5)cc4)c3c2)o1 [Example 30, (4-Benzenesulphonyl-phenyl)-(6-(5-methyl-1,3,4-oxadiazol-2-yl)-quinazolin-4-yl)-amine hydrochloride] | 18000 nM | 5400 nM |  | 6 nM |  | 38 nM | 50000 nM |  |
| Cn1cncc1-c1ccc2ncnc(Nc3ccc4c(cnn4Cc4ccccc4)c3)c2c1 [Example 38, (1-Benzyl-1H-indazol-5-yl)-(6-(3-methyl-3H-imidazol-4-yl)-quinazolin-4-yl)-amine] |  |  |  | 88 nM | 520 nM | 140 nM |  |  |
| c1ccc(Cn2ncc3cc(Nc4ncnc5ccc(-c6noc(Cc7cccnc7)n6)cc45)ccc32)cc1 [Example 62] |  | 500 nM |  | 100 nM |  | 13 nM | 3700 nM |  |

Now from value to compound, other results behind:

| IC50 ([1]; Homo sapiens, Calu-3, 96 h) | GI50 [2] | IC50 ([3]; Homo sapiens, 96 h) | IC50 [5] | IC50 [6] | IC50 [8, 10] | SMILES | IC50 ([4]; Homo sapiens, HB4a, 96 h) | other results |
| --- | --- | --- | --- | --- | --- | --- | --- | --- |
| 4600 nM | 1000 nM | 26000 nM | 21 nM | 500 nM |  | c1ccc(COc2ccc(Nc3ncnc4ccc(-c5cccs5)cc34)cc2)cc1 [Example 2, (4-Benzyloxy-phenyl)-(6-(thiophen-2-yl)-quinazolin-4-yl)-amine] | 8300 nM |  |
| 780 nM | 400 nM | 1400 nM | 20 nM | 320 nM |  | c1ccc(COc2ccc(Nc3ncnc4ccc(-c5ccc(C6OCCO6)o5)cc34)cc2)cc1 [Example 5] | 19000 nM |  |
| 5800 nM | 1600 nM | 5200 nM | 110 nM | 1000 nM | 680 nM | Cn1cncc1-c1ccc2ncnc(Nc3ccc(OCc4ccccc4)cc3)c2c1 [Example 6, (4-Benzyloxy-phenyl)-(6-(3-methyl-3H-imidazol-4-yl)-quinazolin-4-yl)-amine] | 16000 nM | IC50 ([7]; Homo sapiens, BT-474, 96 h): 1900 nM; IC50 ([9]; Homo sapiens, 96 h): 1800 nM |
| 4700 nM | 1300 nM | 5500 nM | 36 nM | 1500 nM |  | C1=C(c2ccc3ncnc(Nc4ccc(OCc5ccccc5)cc4)c3c2)OCC1 [Example 7, (4-Benzyloxy-phenyl)-(6-(2,3-dihydrofuran-5-yl)-quinazolin-4-yl)-amine] | 12000 nM |  |
| 2200 nM | 1500 nM | 2100 nM | 52 nM | 780 nM |  | CN1CCN(Cc2ccc(-c3ccc4ncnc(Nc5ccc(OCc6ccccc6)cc5)c4c3)o2)CC1 [Example 10] | 7100 nM |  |
|  | 450 nM |  | 350 nM | 2300 nM | 300 nM | CCN(CCN(C)C)Cc1ccc(-c2ccc3ncnc(Nc4ccc(OCc5ccccc5)cc4)c3c2)o1 [Example 13, N-(5-(4-(4-Benzyloxy-phenylamino)-quinazolin-6-yl)-furan-2-ylmethyl)-N-ethyl-N′,N′-dimethyl-ethane-1,2-diamine] | 2200 nM |  |
|  | 680 nM |  | 34 nM | 1200 nM |  | c1ccc(COc2ccc(Nc3ncnc4ccc(-c5ccc(CNc6cccnc6)o5)cc34)cc2)cc1 [Example 14, (4-Benzyloxy-phenyl)-(6-(5-(pyridin-3-ylaminomethyl)-furan-2-yl)quinazolin-4-yl)-amine] | 5000 nM | IC50 [8]: 200 nM |
|  | 2600 nM |  | 50 nM | 2300 nM | 540 nM | c1ccc(COc2ccc(Nc3ncnc4ccc(-c5ccc(CNCC6CCCO6)o5)cc34)cc2)cc1 (centres unmarked) [Example 15, (4-Benzyloxy-phenyl)-(6-(5-(((tetrahydro-furan-2-ylmethyl)-amino)-methyl)-furan-2-yl)-quinazolin-4-yl)-amine hydrochloride] | 3200 nM |  |
|  | 6500 nM |  | 10 nM |  | 47 nM | Cc1nnc(-c2ccc3ncnc(Nc4ccc(OCc5ccccc5)cc4)c3c2)o1 [Example 27, (4-Benzyloxy-phenyl)-(6-(5-methyl-1,3,4-oxadiazol-2-yl)-quinazolin-4-yl)-amine hydrochloride] | 50000 nM |  |
|  | 5300 nM |  | 7 nM |  | 50 nM | Cc1nnc(-c2ccc3ncnc(Nc4ccc(OCc5ccccc5F)cc4)c3c2)o1 [Example 28, (4-(2-Fluoro-benzyloxy)-phenyl)-(6-(5-methyl-1,3,4-oxadiazol-2-yl)-quinazolin-4-yl)-amine hydrochloride] | > 50000 nM | IC50 ([9]; Homo sapiens, 96 h): 8200 nM |
